In this assay the test system is HL-60. Kind of assay: Cytotoxicity against human HL60 cells at 10 ug/mL by MTT assay. In kind it is functional, cell-based.

Active and inactive are the calls of the source. The calls are words filed in the database; no cut-off is given here.

For `C=C(C)[C@@H]1CC[C@]2(C(=O)O[C@@H]3O[C@H](CO[C@@H]4O[C@H](CO)[C@@H](O[C@@H]5O[C@@H](C)[C@H](O)[C@@H](O)[C@H]5O)[C@H](O)[C@H]4O)[C@@H](O)[C@H](O)[C@H]3O)CC[C@]3(C)[C@H](CC[C@@H]4[C@@]5(C)CC[C@H](O[C@@H]6OC[C@H](O)[C@H](O)[C@H]6O[C@@H]6O[C@@H](C)[C@H](O)[C@@H](O)[C@H]6O)[C@@](C)(CO)[C@@H]5CC[C@]43C)[C@@H]12`, the outcome was inactive. For `C=C(C)[C@@H]1CC[C@]2(C(=O)O[C@@H]3O[C@H](CO[C@@H]4O[C@H](CO)[C@@H](O[C@@H]5O[C@@H](C)[C@H](O)[C@@H](O)[C@H]5O)[C@H](O)[C@H]4O)[C@@H](O)[C@H](O)[C@H]3O)CC[C@]3(C)[C@H](CC[C@@H]4[C@@]5(C)CC[C@H](O[C@@H]6OC[C@H](O[C@@H]7O[C@H](CO)[C@@H](O[C@@H]8O[C@H](CO)[C@@H](O)[C@H](O)[C@H]8O)[C@H](O)[C@H]7O)[C@H](O)[C@H]6O[C@@H]6O[C@@H](C)[C@H](O)[C@@H](O)[C@H]6O)[C@@](C)(CO)[C@@H]5CC[C@]43C)[C@@H]12`, the result was inactive. `C[C@@H]1O[C@@H](O[C@H]2[C@H](O[C@H]3CC[C@@]4(C)[C@@H](CC[C@]5(C)[C@@H]4CC[C@@H]4[C@H]6[C@H](C(C)(C)O)CC[C@]6(C(=O)O[C@@H]6O[C@H](CO[C@@H]7O[C@H](CO)[C@@H](O[C@@H]8O[C@@H](C)[C@H](O)[C@@H](O)[C@H]8O)[C@H](O)[C@H]7O)[C@@H](O)[C@H](O)[C@H]6O)CC[C@]45C)[C@]3(C)CO)OC[C@H](O)[C@@H]2O)[C@H](O)[C@H](O)[C@H]1O`: the outcome was inactive. Under `C=C(C)[C@@H]1CC[C@]2(C(=O)O[C@@H]3O[C@H](CO[C@@H]4O[C@H](CO)[C@@H](O[C@@H]5O[C@@H](C)[C@H](O)[C@@H](O)[C@H]5O)[C@H](O)[C@H]4O)[C@@H](O)[C@H](O)[C@H]3O)CC[C@]3(C)[C@H](CC[C@@H]4[C@@]5(C)CC[C@H](O[C@@H]6OC[C@H](O)[C@H](O)[C@H]6O[C@@H]6O[C@@H](C)[C@H](O)[C@@H](O)[C@H]6O)C(C)(C)[C@@H]5CC[C@]43C)[C@@H]12` stands “inactive”. Under `C=C(C)[C@@H]1CC[C@]2(C(=O)O[C@@H]3O[C@H](CO[C@@H]4O[C@H](CO)[C@@H](O[C@@H]5O[C@@H](C)[C@H](O)[C@@H](O)[C@H]5O)[C@H](O)[C@H]4O)[C@@H](O)[C@H](O)[C@H]3O)CC[C@]3(C)[C@H](CC[C@@H]4[C@@]5(C)CC[C@H](O[C@@H]6OC[C@H](O[C@@H]7O[C@H](CO)[C@@H](O)[C@H](O)[C@H]7O)[C@H](O)[C@H]6O[C@@H]6O[C@@H](C)[C@H](O)[C@@H](O)[C@H]6O)[C@@](C)(CO)[C@@H]5CC[C@]43C)[C@@H]12` stands “inactive”; under `C=C(C)[C@@H]1CC[C@]2(C(=O)O)CC[C@]3(C)[C@H](CC[C@@H]4[C@@]5(C)CC[C@H](O[C@@H]6OC[C@H](O)[C@H](O)[C@H]6O[C@@H]6O[C@@H](C)[C@H](O)[C@@H](O)[C@H]6O)[C@@](C)(CO)[C@@H]5CC[C@]43C)[C@@H]12`, “inactive”; under `C=C(C)[C@@H]1CC[C@]2(C(=O)O[C@@H]3O[C@H](CO[C@@H]4O[C@H](CO)[C@@H](O[C@@H]5O[C@@H](C)[C@H](O)[C@@H](O)[C@H]5O)[C@H](O)[C@H]4O)[C@@H](O)[C@H](O)[C@H]3O)CC[C@]3(C)[C@H](CC[C@@H]4[C@@]5(C)CC[C@H](O[C@@H]6OC[C@H](O)[C@H](O)[C@H]6O)[C@@](C)(CO)[C@@H]5CC[C@]43C)[C@@H]12`, “inactive”.

(Values after ChEMBL document CHEMBL1156344, “New bisdesmosidic triterpene saponins from the roots of Pulsatilla chinensis” (J Nat Prod, 2001).)
